From publication PMC2362650, “Phase I and pharmacokinetic study of the topoisomerase II catalytic inhibitor fostriecin” (British Journal of Cancer, 1999)

Experiments:
[1] = tested on: GLC4/VM20x; assay: Microtiterwell tetrazolium growth-inhibition assay, medium with 40% pooled human plasma; type: cell-based; settings: GLC4, 96 h; 4 days; medium with 40% human plasma; 95% CI 5.3-6.5
Source text: Fostriecin (CI-920) is a topoisomerase (topo) II catalytic activity inhibitor (Boritzki et al, 1988) (Figure 1). This novel class of topo II-targeting drugs is considered of potential value for treatment of patients with tumours resistant to classic topo II poisons, including anthracyclines and podophyllotoxins (Cummings and Smyth, 1993). The nuclear enzyme topo II is essential for the regulation of DNA conformation (reviewed in Osheroff et al, 1991). Central in its action is the formation of a complex with DNA. Stabilization of this complex by topo II poisons induces DNA damage and cell death (Froelich-Ammon and Osheroff, 1995). Decreased complex formation due to decreased topo II levels is considered to be an important mechanism of tumour-resistance to topo II poisons (Beck and Danks, 1991). The topo II catalytic inhibitor fostriecin is expected to have increased activity against tumour cells with low topo II levels and this was confirmed in in vitro studies (De Jong et al, 1991). […] Drug pharmacokinetics was analysed with high performance liquid chromatography with UV-detection. […] A metabolite, most probably dephosphorylated fostriecin, was detected in plasma and urine. […]

[2] = tested on: GLC4/VM20x; design: method as in Withoff et al, 1996; settings: ref Withoff et al, 1996; cited from earlier work
[3] = tested on: murine leukaemia L1210; design: method as in Leopold et al, 1984; settings: ref Leopold et al, 1984; cited from earlier work
[4] = tested on: murine leukaemia P388; design: method as in Leopold et al, 1984; settings: ref Leopold et al, 1984; cited from earlier work

**Q.** For `C[C@@](O)(/C=C/[C@H]1CC=CC(=O)O1)[C@@H](C[C@@H](O)\C=C/C=C\C=C\CO)OP(=O)(O)O` [fostriecin], which IC50 [1] is on record?
**A.** Its IC50 is 5.9 µM.

**Q.** What about the “sensitivity of GLC4/VM20x relative to GLC4” value [2] of the same compound?
**A.** The value was 1.7 times.

**Q.** And the “activity against L1210” value [3]?
**A.** Its value is “active”.

**Q.** And the “activity against P388” value [4]?
**A.** The value was “active”.
